Reference: PMC12104086, “Identification of a multiple DAMP scavenger mimicking the DAMP-binding site of TLR4 to ameliorate lethal sepsis” (Frontiers in Immunology, 2025)

Columns and labels:
RAW264.7 cells = test: MTS cytotoxicity assay; format: cell-based, mouse; conditions: 20 h, n=3-4, versus PBS
Protocol: (§1) Supplemental Figure 6: Toxicity Assay of OP18
(§2) Note: (A) RAW264.7 cells were treated with OP18 for 20 h and MTS assay was performed using a CellTiter 96® AQueous Non-Radioactive Cell Proliferation Assay kit (Promega, Madison, Wisconsin) according to the manufacturer’s instructions. (B) Mouse peritoneal macrophages were treated with OP18 for 20 h and CyQUANT™ LDH Cytotoxicity Assay (Thermo Fisher Scientific, Waltham, MA) was performed according to the manufacturer’s instruction s. Data are expressed as mean ± SEM (n=3-4 samples/group) and compared by one -way ANOVA and a Tukey’s multiple comparison test. ns: not significant, *p < 0.05 versus PBS (C, D) Sham mice were treated with OP18 for 20h and blood were collected. (C) IL-6 and (D) TNFα were […]
(§3) Data are expressed as mean ± SEM and compared by unpaired two -tailed Student’s t-test. not significant (ns) vs sham.
(§4) (1 picture or pasted object on this page, not shown here)

[1] = test system: mouse peritoneal macrophages; test: LDH cytotoxicity assay; format: cell-based; conditions: 20 h, n=3-4, versus PBS
Protocol: as §1, §2, §3, §4

C57BL/6 mice (sham) = test: Cytokine production in sham mice treated with OP18; format: in vivo, mouse; conditions: OP18-treated sham versus sham, 20 h, blood, ELISA
Protocol: as §1, §2, §3, §4

[2] = test system: C57BL/6 mice, cecal ligation and puncture (CLP); test: CLP lethal sepsis model, 20 h: plasma DAMPs, serum cytokines and organ injury markers; format: in vivo, mouse; conditions: 80 nmol/kg i.p. once at abdominal closure, 20 h after CLP; n = 7–9; scrambled: vs sham; OP18: vs scrambled peptide; p < 0.05
Protocol: Polymicrobial sepsis was induced in mice by cecal ligation and puncture (CLP) ([7], [23]). Mice were anesthetized with isoflurane, and a midline abdominal incision was performed. The cecum was ligated with a 4–0 silk suture 1 cm proximal from its distal extremity and puncture using a 22-G needle was made twice (through and through) for a 20-h study and once for a survival study. A control (scrambled peptide) or OP18, both with 80 nmol/kg body weight (BW), was injected intraperitoneally (i.p.) before the closure. Sham animals were subjected to a laparotomy without CLP. Following the surgery, 1 mL of saline was injected subcutaneously to avoid surgery-induced dehydration, and 0.05 mg/kg buprenorphine was injected subcutaneously as an analgesic; 20 h after the surgery, the blood and lungs were collected. In the 20-h model, antibiotics were not administered, whereas in the survival study, 0.5 mg/kg BW of Imipenem was injected subcutaneously.
Blood was collected, centrifuged at 1,000 × g for 10 min, and plasma or serum was separated. Plasma levels of eCIRP, HMGB1, and histone H3 were analyzed by ELISA kits according to the manufacturer’s instruction (eCIRP from American Research Products, Inc., Waltham, MA, USA, HMGB1 from Invitrogen, Thermo Fisher Scientific, and histone H3 from LS Bio, Shirley, MA, USA). Serum levels of IL-6 and TNF-α were analyzed by ELISA kits (IL-6 and TNF-α both from BD Biosciences, Franklin Lakes, NJ, USA) according to the manufacturer’s instruction. Serum levels of aspartate aminotransferase (AST), lactate dehydrogenase (LDH), blood urea nitrogen (BUN), and creatinine (Cre) were measured by specific colorimetric enzymatic assays (Pointe Scientific, Canton, MI). Absorbance was measured on a Synergy Neo2 (Agilent Technologies) according to the manufacturer’s instructions.
Figure 4 OP18 alleviates systemic inflammation and tissue injury in sepsis. Intraperitoneal injection of 80 nmol/kg scrambled peptide or 80 nmol/kg OP18 was performed on CLP mice before skin closure. Blood and lungs were collected 20 h after CLP. (A–C) Plasma levels of (A) eCIRP, (B) HMGB1, and (C) histone H3. (D–I) Serum levels of (D) IL-6, (E) TNF-α, (F) AST, (G) LDH, (H) BUN, and (I) Cre. Data are expressed as mean ± SEM (n = 7–9 samples/group) and were compared using one-way ANOVA followed by Tukey’s multiple comparison test. ^* p < 0.05 versus sham; ^# p < 0.05 versus scrambled peptide. Experiments were performed three times, and all data were used for analysis.

Row | Molecule | cytotoxicity on macrophages (MTS) (RAW264.7 cells) | cytotoxicity on macrophages (LDH) [1] | IL-6 in sham mice (C57BL/6 mice (sham)) | TNFα in sham mice (C57BL/6 mice (sham)) | plasma HMGB1 level [2] | plasma eCIRP level [2] | plasma histone H3 level [2] | serum AST [2] | serum BUN [2] | serum Cre [2] | serum IL-6 [2] | serum LDH [2] | serum TNF-α [2]
1 | CC[C@H](C)[C@H](NC(=O)[C@H](CC(N)=O)NC(=O)[C@H](CO)NC(=O)[C@H](CO)NC(=O)[C@H](CC(N)=O)NC(=O)[C@H](Cc1ccccc1)NC(=O)[C@H](CC(N)=O)NC(=O)CN)C(=O)N[C@@H](CCSC)C(=O)N[C@@H](CCCCN)C(=O)N[C@H](C(=O)N[C@@H](CS)C(=O)N[C@@H](CC(C)C)C(=O)N[C@@H](CCC(N)=O)C(=O)N[C@@H](CC(N)=O)C(=O)N[C@@H](CCCNC(=N)N)C(=O)NCC(=O)N[C@@H](CC(=O)O)C(=O)O)[C@@H](C)O [OP18] | did not observe any cytotoxicity | did not observe any cytotoxicity | No significant difference | No significant difference |  |  |  |  |  |  |  |  | 
2 | NRKINMGSFTQCSNNLGD [scrambled peptide, scrambled control peptide for OP18 ([…])] |  |  |  |  | significantly elevated | significantly elevated | significantly elevated | significantly elevated | significantly elevated | significantly elevated | significantly elevated | significantly elevated | significantly elevated
